Test results: patent US10105357B2, “Indication of antibiotic drugs for preparation of cancer inhibition pharmaceutical composition” (LAUNX BIOMEDICAL CO., LTD., priority 2014, dated 2018)
Where a name gives a salt, the structure may show the parent alone. Read-outs that look alike come from different tables or passages of the source.

Tests used:
[1] = tested on: HCT116 (p53+) (Colorectal Carcinoma)
[2] = tested on: SAS (Tongue squamous cell carcinoma); assay: Cell viability analysis, tongue cancer SAS; assay type: cell-based, human; details: Homo sapiens, 72 h, read-out: The results of antibiotic drug inhibiting cancer cell lines (cell viability analysis), SAS
[3] = tested on: TSGH-8301 (Urinary Bladder Carcinoma); assay: Cell viability analysis, bladder cancer TSGH-8301; assay type: cell-based, human; details: Homo sapiens, 72 h
BxPC-3 = assay: Cell viability analysis, pancreatic cancer BxPC-3; assay type: cell-based, human; details: Homo sapiens, BXPC-3, 72 h, read-out: The results of antibiotic drug inhibiting cancer cell lines (cell viability analysis), BxPC-3
[4] = tested on: HeLa (Cervix Adenocarcinoma); assay: Cell viability analysis, cervical cancer HeLa; assay type: cell-based, human; details: Homo sapiens, HeLa, 72 h
[5] = tested on: 786-O (Renal adenocarcinoma); assay: Cell viability analysis, renal cancer 786-O; assay type: cell-based, human; details: Homo sapiens, 786-0, 72 h, read-out: The results of antibiotic drug inhibiting cancer cell lines (cell viability analysis), 786-O
T24 = assay: Cell viability analysis, bladder cancer T24; assay type: cell-based, human; details: Homo sapiens, T-24, 72 h, read-out: The results of antibiotic drug inhibiting cancer cell lines (cell viability analysis), T24
AsPC-1 = assay: Cell viability analysis, pancreatic cancer AsPC-1; assay type: cell-based, human; details: Homo sapiens, ASPC1, 72 h, read-out: The results of antibiotic drug inhibiting cancer cell lines (cell viability analysis), AsPC-1
[6] = tested on: MKN-45 (Gastric Adenocarcinoma); assay: Cell viability analysis, gastric cancer MKN-45; assay type: cell-based, human; details: Homo sapiens, MKN-45, 72 h
[7] = tested on: MDA-MB-231 (Mammary Gland, Adenocarcinoma); assay: Cell viability analysis, breast cancer MDA-MB-231; assay type: cell-based, human; details: Homo sapiens, MDA-MB-231, 72 h, read-out: The results of antibiotic drug inhibiting cancer cell lines (cell viability analysis), MDA-MB231
cancer cell lines = assay: Cell viability analysis (WST-1) on cancer cell lines; assay type: cell-based, human; details: drug 10 μM, 72 hours, WST-1; Table 3
[8] = tested on: BCC (basal cell carcinoma); assay: Cell viability analysis, skin cancer BCC; assay type: cell-based, human; details: Homo sapiens, 72 h, read-out: The results of antibiotic drug inhibiting cancer cell lines (cell viability analysis), BCC
[9] = tested on: Hep3B (hepatocellular carcinoma); assay: Cell viability analysis, hepatic cancer Hep3B; assay type: cell-based, human; details: Homo sapiens, Hep3B, 72 h, read-out: The results of antibiotic drug inhibiting cancer cell lines (cell viability analysis), Hep3B
[10] = tested on: C-33A (Cervical carcinoma); assay: Cell viability analysis, cervical cancer C-33A; assay type: cell-based, human; details: Homo sapiens, C-33-A, 72 h, read-out: The results of antibiotic drug inhibiting cancer cell lines (cell viability analysis), C-33A
[11] = tested on: AGS (Gastric Adenocarcinoma); assay: Cell viability analysis, gastric cancer AGS; assay type: cell-based, human; details: Homo sapiens, 72 h
[12] = tested on: LoVo (Colorectal Adenocarcinoma); assay: Cell viability analysis, colon cancer LoVo; assay type: cell-based, human; details: Homo sapiens, LoVo, 72 h
[13] = tested on: PC3 (p53−) (Prostate Adenocarcinoma); assay: Cell viability analysis, prostate cancer PC3; assay type: cell-based, human; details: Homo sapiens, 72 h
TOV-21G = assay: Cell viability analysis, ovarian cancer TOV-21G; assay type: cell-based, human; details: Homo sapiens, TOV21G, 72 h, read-out: The results of antibiotic drug inhibiting cancer cell lines (cell viability analysis), TOV-21G
U-2OS = assay: Cell viability analysis, osteosarcoma U-2OS; assay type: cell-based, human; details: Homo sapiens, U2OS, 72 h, read-out: The results of antibiotic drug inhibiting cancer cell lines (cell viability analysis), U2OS
[14] = tested on: A549 (Lung Adenocarcinoma); assay: Cell viability analysis, lung cancer A549; assay type: cell-based, human; details: Homo sapiens, A549, 72 h
[15] = tested on: MCF7 (Mammary Gland, Adenocarcinoma); assay: Cell viability analysis, breast cancer MCF7; assay type: cell-based, human; details: Homo sapiens, MCF7, 72 h
[16] = tested on: HI650 (Lung Adenocarcinoma); assay: Cell viability analysis, lung cancer HI650; assay type: cell-based, human; details: Homo sapiens, NCI-H1650, 72 h
[17] = tested on: A375 (Amelanotic Melanoma); assay: Cell viability analysis, skin cancer A375; assay type: cell-based, human; details: Homo sapiens, A-375, 72 h
NIH: OVCAR-3 = assay: Cell viability analysis, ovarian cancer NIH: OVCAR-3; assay type: cell-based, human; details: Homo sapiens, OVCAR-3, 72 h, read-out: The results of antibiotic drug inhibiting cancer cell lines (cell viability analysis), NIH-OVCAR-3
[18] = tested on: HL-60 (Acute Promyelocytic Leukemia); assay: Cell viability analysis, leukemia HL-60; assay type: cell-based, human; details: Homo sapiens, HL-60, 72 h, read-out: cell viability (survival rate), HL-60, drug 10 μM, 72 hours, WST-1, OD450 nm
[19] = tested on: HepG2 (Hepatocellular Carcinoma); assay: Cell viability analysis, hepatic cancer HepG2; assay type: cell-based, human; details: Homo sapiens, HepG2, 72 h
[20] = read-out: The results of antibiotic drug inhibiting cancer cell lines (cell viability analysis), TSGH-8301, TSGH-8301, repeated experiment
[21] = read-out: The results of antibiotic drug inhibiting cancer cell lines (cell viability analysis), HeLa, repeated experiment
[22] = read-out: The results of antibiotic drug inhibiting cancer cell lines (cell viability analysis), MKN-45, MKN-45, repeated experiment
[23] = read-out: The results of antibiotic drug inhibiting cancer cell lines (cell viability analysis), AGS, repeated experiment
[24] = read-out: The results of antibiotic drug inhibiting cancer cell lines (cell viability analysis), LoVo, repeated experiment
[25] = read-out: The results of antibiotic drug inhibiting cancer cell lines (cell viability analysis), PC-3, PC-3, repeated experiment
[26] = read-out: The results of antibiotic drug inhibiting cancer cell lines (cell viability analysis), A549, A549, repeated experiment
[27] = read-out: The results of antibiotic drug inhibiting cancer cell lines (cell viability analysis), MCF-7, MCF-7, repeated experiment
[28] = read-out: The results of antibiotic drug inhibiting cancer cell lines (cell viability analysis), H1650, H1650, repeated experiment
[29] = read-out: The results of antibiotic drug inhibiting cancer cell lines (cell viability analysis), A375, A375, repeated experiment
[30] = read-out: cell viability (survival rate), A375, drug 10 μM, 72 hours, WST-1, OD450 nm
[31] = read-out: cell viability (survival rate), TSGH, drug 10 μM, 72 hours, WST-1, OD450 nm
[32] = read-out: cell viability (survival rate), HeLa, drug 10 μM, 72 hours, WST-1, OD450 nm
[33] = read-out: cell viability (survival rate), MKN-45, drug 10 μM, 72 hours, WST-1, OD450 nm
[34] = read-out: cell viability (survival rate), AGS, drug 10 μM, 72 hours, WST-1, OD450 nm
[35] = read-out: cell viability (survival rate), LoVo, drug 10 μM, 72 hours, WST-1, OD450 nm
[36] = read-out: cell viability (survival rate), PC3, drug 10 μM, 72 hours, WST-1, OD450 nm
[37] = read-out: cell viability (survival rate), A549, drug 10 μM, 72 hours, WST-1, OD450 nm
[38] = read-out: cell viability (survival rate), MCF7, drug 10 μM, 72 hours, WST-1, OD450 nm
[39] = read-out: cell viability (survival rate), H1650, drug 10 μM, 72 hours, WST-1, OD450 nm
[40] = read-out: The results of antibiotic drug inhibiting cancer cell lines (cell viability analysis), HepG2, HepG2, repeated experiment
[41] = read-out: cell viability (survival rate), HepG2, drug 10 μM, 72 hours, WST-1, OD450 nm

| SMILES | viability [1] [%] | viability at 10 µM [2] [%] | viability at 10 µM [3, 20] [%] | viability at 10 µM (BxPC-3) [%] | viability at 10 µM [4, 21] [%] | viability at 10 µM [5] [%] | viability at 10 µM (AsPC-1) [%] | viability at 10 µM [6, 22] [%] | viability at 10 µM [7] [%] | inhibition effect on different cancer cell lines (cancer cell lines) | viability at 10 µM [8] [%] | viability at 10 µM [9] [%] | viability at 10 µM [10] [%] | viability at 10 µM [11, 23] [%] | viability at 10 µM [12, 24] [%] | viability at 10 µM [13, 25] [%] | viability at 10 µM (TOV-21G) [%] | viability at 10 µM (U-2OS) [%] | viability at 10 µM [14, 26] [%] | viability at 10 µM [15, 27] [%] | further results |
| --- | --- | --- | --- | --- | --- | --- | --- | --- | --- | --- | --- | --- | --- | --- | --- | --- | --- | --- | --- | --- | --- |
| CN(C)CCCN1c2ccccc2CCc2ccc(Cl)cc21 [Clomipramine hydrochloride (Anafranil), Clomipramine hydrochloride] | 137 | 51.6 | 139 | 78.3 | 113 | 80.3 | 77.2 | 125 | 117 | significant inhibition effect | 124 | 135 | 118 | 122 | 65.7 | 91.2 | 118 | 58.4 | 86.4 | 65.9 | viability at 10 µM (T24): 109%; viability at 10 µM [16, 28]: 103% |
| CCOc1ccc(NC(C)=O)cc1 [Phenacetin] | 102 | 81.9 | 128 | 73.2 | 110 | 92 | 90.5 | 123 | 91.7 | significant inhibition effect | 119 | 106 | 114 | 122 | 87.7 | 133 | 95.8 | 63.9 | 87.6 | 92.9 | viability at 10 µM [17, 29]: 106%; viability at 10 µM [17, 30]: 54.1%; viability at 10 µM [3, 31]: 23.3%; viability at 10 µM [4, 32]: 57.2%; viability at 10 µM [6, 33]: 75.1%; viability at 10 µM [11, 34]: 40.4%; viability at 10 µM (NIH: OVCAR-3): 105%; viability at 10 µM [12, 35]: 48.5%; viability at 10 µM [13, 36]: 40.4%; viability at 10 µM [14, 37]: 34.4%; viability at 10 µM [18]: 95.3%; viability at 10 µM [15, 38]: 62.7%; viability at 10 µM [16, 28]: 90.1%; viability at 10 µM [16, 39]: 39.1%; viability at 10 µM [19, 40]: 121%; viability at 10 µM [19, 41]: 72.5% |
| CC(=O)NC[C@H]1CN(c2ccc(N3CCOCC3)c(F)c2)C(=O)O1 [Linezolid (Zyvox), Linezolid] | 107 | 84 | 99.7 | 95.6 | 89.2 | 98.6 | 92.6 | 137 | 96.2 | significant inhibition effect | 67.2 | 99.9 | 132 | 104 | 89.5 | 115 | 78.2 | 99.8 | 82.1 | 73.1 | viability at 10 µM [17, 29]: 82.8%; viability at 10 µM [17, 30]: 57.6%; viability at 10 µM [3, 31]: 58.2%; viability at 10 µM [4, 32]: 93.7%; viability at 10 µM [6, 33]: 65.9%; viability at 10 µM [11, 34]: 70.8%; viability at 10 µM (NIH: OVCAR-3): 110%; viability at 10 µM [12, 35]: 91%; viability at 10 µM [13, 36]: 67%; viability at 10 µM [14, 37]: 40.2%; viability at 10 µM [18]: 129%; viability at 10 µM [15, 38]: 66.3%; viability at 10 µM [16, 28]: 95.6%; viability at 10 µM [16, 39]: 51.3%; viability at 10 µM [19, 40]: 107%; viability at 10 µM [19, 41]: 91.3% |
